Reference: paper PMC11129186, “New Improved cGMP Analogues to Target Rod Photoreceptor Degeneration” (Journal of Medicinal Chemistry, 2024)
Several values for one entry are separate records, joined by “and”; a condition that tells them apart may be missing. Identical values can stand only once. Like-named read-outs stand apart in the source and are kept apart here.

What was measured:
661W-A11 cells = experiment: Toxicity assay, MTT viability of unstressed cells; assay type: cell-based, mouse; settings: 1 μM to 1 mM, 48 h; dithio-CN03 in DMSO, compared to DMSO vehicle
Excerpt: With the aim of developing a new treatment for RP, we evaluated possible toxic effects of the cGMP analogues on a retinal cell line. The target of the treatment for RP is rod photoreceptors, the cells that die due to increased intracellular levels of cGMP during the progression of retinal degeneration. […] Furthermore, this cell line can be stressed with zaprinast, a phosphodiesterase 6 (PDE6) inhibitor, to increase intracellular cGMP and activate cell death pathways, as found in the RP mutant retina. […] A toxicity test was set up by exposing 661W-A11 cells to increasing doses of the four new TEA salts of CN03: CN03, SP-CN03, oxo-CN03, and dithio-CN03 (Figure 2). Viability of the cells was assessed by an MTT assay that measures cell metabolic activity. […]
661W-A11 cells were seeded in 96-well plates at a density of 6000 cells/well, and the following day they were treated with scaling concentrations of either CN03-Na^+, CN03, SP-CN03, oxo-CN03, or dithio-CN03 for 48 h. […] Cell viability was assessed with MTT (3-(4,5-dimethylthiazol-2-yl)-2,5-diphenyl tetrazolium bromide, Sigma). […] The crystals were shaken for 10 min to dissolve and the optical density (OD) was measured at a wavelength of 570 nm.

[1] = Aqueous solubility at room temperature (phase solubility, HPLC); assay type: physicochemical
Procedure: Physicochemical properties of dithio-CN03 were characterized and compared to CN03. […] Salt forms of CN03, for example, were prepared varying in aqueous solubility as low as 0.01 mg/mL.[12] To facilitate future development of reactive crystallizations toward other salt forms, a temperature-dependent solubility was also measured between 20 and 75 °C. The resulting solubility curve can be found in the Supporting Information (Figure S38).
The solubility of dithio-CN03 was measured at room temperature and in quadruplicate by phase solubility techniques. Saturated mixtures of the compound were prepared by adding excess starting material to 4 mL vials containing 2 mL of deionized water. They were allowed to equilibrate for 24 h using mild agitation before recording the pH. The clear solution was separated from the solids by filtration with a Cytiva Whatman Mini-Uniprep polypropylene 0.45 μm filter device and diluted to an appropriate analytical concentration where needed. The sample was then analyzed by HPLC, and the solubility was determined by integrating the area of the peak of interest against a standard curve. The solids were also analyzed by XRPD to record the crystal modification obtained.
Solubility data for dithio-CN03
Table S1: Aqueous solubility at room temperature
Sample mg / mL pH of mixture […]
(1 picture or pasted object on this page, not shown here)

[2] = Thermal analysis (DSC and TG); assay type: physicochemical; settings: crystal modification I; scan 10 °C/min
Procedure: Finally, we performed thermal analyses on crystal modification I by using differential scanning calorimetry (DSC) and thermogravimetry (TG), both of which confirmed a behavior analogous to that of CN03. There were no observable melting points. Instead, there was only a sharp exothermic event on DSC at 170 °C associated with significant mass loss on TG, which we interpreted as a thermal decomposition of the compound (Figure 1B). It should be noted that decomposition peaks on DSC and TG are not indicative of physical stability (e.g., melting point, and solubility). Since the material was crystalline, it was considered to own a melting point at a higher temperature than this decomposition.
DSC analyses were carried out on a Mettler DSC822e, equipped with a Thermo Haake EK45/MT cooler. The samples were weighed into a 40 μL Al-cup, which was then closed with a pierced lid. The sample was scanned from 25 to 300 °C, with a scan rate of 10 °C/min.
TG was performed on a Mettler TGA/SDTA 851e, equipped with a Haake C50P cooler. Alternatively, thermogravimetric and DSC analyses were carried out simultaneously in a Mettler Toledo TGA/DSC 3+. The samples were weighed into a 100 μL Al-cup, and this was flushed with dry nitrogen gas during the analysis. The sample was scanned from 25 to 300 °C, with a scan rate of 10 °C/min.

[3] = test system: 661W-A11 cells stressed with zaprinast; experiment: Cell viability MTT assay in cells stressed with zaprinast; assay type: cell-based, mouse; settings: 50 μM compound, 200 μM zaprinast for 48 h
Procedure: The neuroprotective activity of the newly developed compounds was then evaluated in 661W-A11 cells stressed with zaprinast. Viability was assessed by an MTT assay.
(§1) 661W-A11 cells were seeded in 96-well plates at a density of 6000 cells/well or in 24-well plates at a density of 20,000 cells/well. Twenty-four h after seeding, cells were pretreated with 50 μM of either CN03-Na^+ or CN03 or SP-CN03 or oxo-CN03 or dithio-CN03 for 2 h, followed by 200 μM zaprinast treatment for 48 h in the presence of the compounds. Control groups were treated with an equal volume of vehicle, H2O or DMSO.
661W-A11 cells were cultured on 96-well plates at a density of 6000 cells/well. After compound treatments, the culture medium was replaced with medium containing 1 mg/mL of MTT (Sigma) and cells were cultured for 90 min at 37 °C. Viability was assessed by MTT assay (see above for detailed procedure). OD was measured at 570 nm.

[4] = test system: primary photoreceptor cells derived from rd1 mutant mice; experiment: Cell death TUNEL assay in primary photoreceptors; assay type: cell-based, mouse; settings: for neuroprotective effect, cell death (TUNEL): 50 μM added at day 10 of differentiation, read at day 11
Excerpt: To address this possible limitation of the RP model, we tested the CN03 analogues in another RP in vitro cellular model, previously validated for the analysis of cGMP analogues.[10] This model is based on the primary cell culture and differentiation of cells derived from rd1 mutant eyes. The rd1 mouse is one of the best characterized murine models of RP. It carries a mutation in the Phosphodiesterase 6b (Pde6b) gene. Lack of PDE6 function causes high intracellular levels of cGMP in rod photoreceptor cells.[26],[9] […] CN03-Na^+, SP-CN03, and dithio-CN03 were administered to the culture of rd1 mutant cells at a concentration of 50 μM at day 10 of differentiation. The concentration of the compounds and the time of treatment were chosen based on the previously published study in which cGMP inhibitory analogues were tested in this type of primary photoreceptors.[10] Cell death was then analyzed by the TUNEL assay at day 11 of in vitro differentiation.
rd1 mutant mice were purchased from Charles River Italy. The protocol was approved by the Ethical Committee of the University of Modena and Reggio Emilia and by the Italian Ministero della Salute (150/2021-PR). Primary neurospheres were derived from the eyes of rd1 mutant mice, as previously reported.[32] Retinal stem cells in neurospheres were differentiated into photoreceptors, as previously reported.[10]rd1 mutant photoreceptor cells underwent spontaneous cell death after differentiation for 11 days. At day 10, 50 μM of either CN03-Na^+ or SP-CN03 or dithio-CN03 were added to the cells in culture and cell death was assessed 1 day later (day 11 of differentiation) by TUNEL assay (see above for detailed procedure).

[5] = test system: 661W-A11 cells stressed with zaprinast; experiment: Dose-response curves of cell viability (MTT) under zaprinast stress; assay type: cell-based, mouse; settings: for EC50: read-out: EC50 of cell viability
Procedure: For this analysis, we used the 661W-A11 cells stressed with zaprinast and exposed them to scaling concentrations of either dithio-CN03 or SP-CN03 or CN03-Na^+. The effects were evaluated by the cell viability MTT assay (Figure 5). […] Nevertheless, CN03-Na^+ and SP-CN03 reached up to 70–80% cell viability, while dithio-CN03 could protect rod photoreceptors to almost 100% cell viability at the highest doses (Figure 5). Although dithio-CN03 was considered more hydrophobic, and its entrance in the cells could have been facilitated by this feature, the calculated EC50 was nonetheless similar to more hydrophilic analogues.
661W-A11 cells were seeded in 96-well plates at a density of 6000 cells/well, and the following day they were pretreated with scaling concentrations of either CN03-Na^+ or SP-CN03 or dithio-CN03 for 2 h and then stressed with zaprinast 200 μM in the presence of the compounds for 48 h. Cell viability was assessed by MTT assay (see above for detailed procedure). OD was measured at 570 nm. Data were plotted and EC50 calculated using GraphPad Prism version 7.

[6] = test system: 661W-A11 cells stressed with zaprinast; experiment: Cell death TUNEL assay in cells stressed with zaprinast; assay type: cell-based, mouse; settings: 50 μM compound, 200 μM zaprinast for 48 h
Procedure: Viability assay cannot discriminate between protection from cell death and possible increased proliferation induced by the treatment. To discriminate between these two responses, we analyzed cell death by the TUNEL assay that detects dying cells based on fragmented chromatin. The TUNEL assay confirmed data obtained with the MTT assay (Figure 3B,C).
as §1
661W-A11 cells were seeded in 24-well plates at a density of 20,000 cells/well. After treatments, cells were fixed with 2% paraformaldehyde for 10 min and permeabilized with 1 M Na^+ citrate and 0.1% Triton X-100 on ice for 2 min. Cells were incubated with TUNEL solution “In situ Cell Death Detection Kit” TMR Red (Roche) for 30 min at 37 °C, and cell nuclei were stained with 0.1 μg/mL 4′,6-diamidin-2-fenilindolo (DAPI). […] The quantification of percentage of dead cells was based on the ratio of TUNEL-labeled cells on the total number of cells (DAPI-labeled).

PDE6 purified enzyme = molecular target: PDE6 purified enzyme; design: method as in PMID 16123402; settings: cited from earlier work
PKG = test system: PKG; design: method as in PMID 29531030; settings: in vitro and in vivo; cited from earlier work
[7] = test system: photoreceptor cells of murine models of RP; design: method as in PMID 29531030; settings: in vivo delivered; cited from earlier work
CNGC = test system: CNGC; design: method as in PMID 29531030; settings: in vitro and in vivo; cited from earlier work
[8] = saturated aqueous mixture, room temperature

CCN(CC)CC.O=c1c2nc(Br)n([C@@H]3O[C@@H]4COP(=S)(S)O[C@H]4[C@H]3O)c2nc2[nH]c(-c3ccccc3)cn12 (stereo partly drawn) [dithio-CN03, Triethylammonium 8-Bromo-β-phenyl-1,N^2-ethenoguanosine-3′,5′-cyclicmonophosphorodithioate]
toxicity (cell viability, MTT) (661W-A11 cells): lowest toxicity
solubility compared to CN03 ([1]; aqueous): lower solubility
solubility at 24 h ([1]; deionized water, pH 5.6, deionized H2O, room temperature, corresponds to crystal modification II (trihydrate), read-out: aqueous solubility): 1170 µg/mL
solubility at 24 h ([1]; deionized water, pH 5.6, deionized H2O, room temperature, read-out: aqueous solubility): 1800 µM
solubility at 24 h ([1]; deionized water, water, thermodynamic from solid, room temperature, deionized water, 24 h equilibration, read-out: aqueous solubility, single samples 1-4 (Table S1)): 1160 µg/mL
aqueous solubility, single samples 1-4 (Table S1) ([1]; room temperature, deionized water, 24 h equilibration): 1198 µg/mL and 1160 µg/mL and 1169 µg/mL
pH of mixture, Average (Table S1) [1, 8]: 5.6
pH of mixture, single samples 1-4 (Table S1) [1, 8]: 4.7 and 5.6 and 5.9 and 6.3
exothermic event on DSC with mass loss on TG, interpreted as thermal decomposition [2]: 170 °C
protective effect on cell viability (MTT) [3]: significantly higher protective effects compared to CN03-Na^+
neuroprotective effect, cell death (TUNEL) [4]: significantly better neuroprotective activity
cell viability reached at the highest doses ([5]; 200 μM zaprinast for 48 h, MTT): ~100%
EC50 ([5]; Mus musculus, 661W-A11, 48 h): 20 µM
protection from cell death (TUNEL) [6]: highest neuroprotective activity

O=c1c2nc(Br)n([C@@H]3O[C@@H]4CO[P@](O)(=S)O[C@H]4[C@H]3O)c2nc2[nH]c(-c3ccccc3)cn12 [SP-CN03, Triethylammonium SP-8-Bromo-β-phenyl-1,N^2-ethenoguanosine-3′,5′-cyclicmonophosphorothioate]
protective effect on cell viability (MTT) [3]: increasing cell viability
neuroprotective effect, cell death (TUNEL) [4]: neuroprotective effect similar to CN03-Na^+
toxicity to photoreceptors ([4]; 50 μM, 24 h): not toxic to photoreceptors
cell viability reached at the highest doses ([5]; 200 μM zaprinast for 48 h, MTT): 70–80%
EC50 ([5]; Mus musculus, 661W-A11, 48 h): 16 µM

O=c1c2nc(Br)n([C@@H]3O[C@@H]4CO[P@@]([O-])(=S)O[C@H]4[C@H]3O)c2nc2[nH]c(-c3ccccc3)cn12.[Na+] [CN03-Na^+]
neuroprotective effect, cell death (TUNEL) [4]: decreased the percentage of cell death
cell viability reached at the highest doses [5]: 70–80%
EC50 ([5]; 200 μM zaprinast for 48 h, doses 1 μM to 1 mM, MTT): 16.9 µM

CCCOc1ccccc1-c1nc2nn[nH]c2c(=O)[nH]1 [zaprinast]
Ki (PDE6 purified enzyme): 0.03 µM

O=c1c2nc(Br)n([C@@H]3O[C@@H]4CO[P@@](O)(=S)O[C@H]4[C@H]3O)c2nc2[nH]c(-c3ccccc3)cn12 [CN03, RP-8-Br-PET-cGMPS]
interference with PKG activity (PKG): interfere with PKG activity
preservation of photoreceptor cells [7]: could preserve photoreceptor cells of murine models of RP
block of Ca2+ influx through the CNGC (CNGC): block Ca^2+ influx through the CNGC

O=c1c2nc(Br)n([C@@H]3O[C@@H]4COP(=O)(O)O[C@H]4[C@H]3O)c2nc2[nH]c(-c3ccccc3)cn12 [oxo-CN03, Triethylammonium 8-Bromo-β-phenyl-1,N^2-ethenoguanosine-3′,5′-cyclicmonophosphate]
protective effect on cell viability (MTT) [3]: All CN03 compounds, except oxo-CN03, were able to improve cell viability
protection from cell death (TUNEL) [6]: failure of oxo-CN03 to protect
